Reference: ChEMBL document CHEMBL4610065, “Isolation and Structural Characterization of Specific Bacterial β-Glucuronidase Inhibitors from Noni (Morinda citrifolia) Fruits” (J Nat Prod, 2020)
pIC50: −log10 of the molar value. Active and inactive are the calls of the source. No cut-off for these calls is given here.

How the values were obtained:
[1] = molecular target: Beta-glucuronidase (Escherichia coli (strain K12), UniProt P05804); experiment: Inhibition of Escherichia coli beta-glucuronidase using 4-methylumbelliferyl-beta-D-glucuronide hydrate as substrate preincubated for 5 mins followed by substrate addition and measured after 30 mins by fluorescence method
[2] = molecular target: T1, Pancreatic triacylglycerol lipase (Sus scrofa, UniProt P00591); experiment: Inhibition of porcine pancreatic lipase up to 1 mg/ml using 4-MU oleate as substrate incubated for 30 min by fluorescence method relative to control; conditions: pig, 0.5 h
T1 sequence (P00591 whole entry): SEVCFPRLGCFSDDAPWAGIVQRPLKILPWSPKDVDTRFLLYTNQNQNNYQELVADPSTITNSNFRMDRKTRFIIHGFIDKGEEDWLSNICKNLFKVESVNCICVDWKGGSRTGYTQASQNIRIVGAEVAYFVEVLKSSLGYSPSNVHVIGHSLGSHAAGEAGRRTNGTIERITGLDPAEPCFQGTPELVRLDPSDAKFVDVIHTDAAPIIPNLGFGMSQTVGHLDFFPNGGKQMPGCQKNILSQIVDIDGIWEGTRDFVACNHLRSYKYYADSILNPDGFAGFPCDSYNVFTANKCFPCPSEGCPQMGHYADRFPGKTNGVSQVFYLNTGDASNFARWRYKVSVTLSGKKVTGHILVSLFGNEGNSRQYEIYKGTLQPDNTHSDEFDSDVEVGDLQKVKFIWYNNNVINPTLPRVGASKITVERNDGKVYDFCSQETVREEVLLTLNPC

[3] = organism: Rattus norvegicus; experiment: Inhibition of rat intestinal alpha-glucosidase at 1 mg/ml using pNPG as substrate preincubated for 3 mins followed by substrate addition and measured after 30 mins relative to control
[4] = molecular target: T1, Pancreatic triacylglycerol lipase; experiment: Inhibition of porcine pancreatic lipase at 0.1 mg/ml using 4-MU oleate as substrate incubated for 30 min by fluorescence method relative to control; conditions: pig, 0.5 h
[5] = molecular target: T2, Pancreatic alpha-amylase (Sus scrofa, UniProt P00690); experiment: Inhibition of porcine pancreatic alpha-amylase at 0.1 to 0.5 mg/ml using potato starch as substrate preincubated for 5 mins followed by substrate addition and measured after 3 mins by DNS method; conditions: pig, 0.05 h
T2 sequence (P00690 whole entry): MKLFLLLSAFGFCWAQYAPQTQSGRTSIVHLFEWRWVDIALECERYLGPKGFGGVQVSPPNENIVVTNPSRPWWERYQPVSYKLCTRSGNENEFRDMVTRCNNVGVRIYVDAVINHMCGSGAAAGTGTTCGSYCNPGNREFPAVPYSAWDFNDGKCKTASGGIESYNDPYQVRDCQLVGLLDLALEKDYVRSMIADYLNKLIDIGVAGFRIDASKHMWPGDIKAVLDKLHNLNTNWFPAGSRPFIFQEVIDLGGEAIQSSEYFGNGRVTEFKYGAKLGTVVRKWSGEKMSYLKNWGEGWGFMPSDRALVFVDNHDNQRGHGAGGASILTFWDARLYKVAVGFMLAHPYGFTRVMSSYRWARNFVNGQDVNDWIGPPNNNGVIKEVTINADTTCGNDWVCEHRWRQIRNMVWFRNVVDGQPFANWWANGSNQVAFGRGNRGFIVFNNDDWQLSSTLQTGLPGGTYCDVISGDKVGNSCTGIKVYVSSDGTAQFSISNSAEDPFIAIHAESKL

[6] = organism: Rattus norvegicus; experiment: Inhibition of rat intestinal alpha-glucosidase at 0.5 mg/ml using pNPG as substrate preincubated for 3 mins followed by substrate addition and measured after 30 mins
[7] = molecular target: Beta-glucuronidase (Escherichia coli (strain K12)) (UniProt P05804); experiment: Potency index, ratio of DSA IC50 to compound IC50 for inhibition of Escherichia coli beta-glucuronidase using 4-methylumbelliferyl-beta-D-glucuronide hydrate as substrate preincubated for 5 mins followed by substrate addition and measured after 30 mins by fluorescence method
[8] = molecular target: T2, Pancreatic alpha-amylase; experiment: Inhibition of porcine pancreatic alpha-amylase at 1 mg/ml using potato starch as substrate preincubated for 5 mins followed by substrate addition and measured after 3 mins by DNS method relative to control; conditions: pig, 0.05 h
[9] = organism: Rattus norvegicus; experiment: Inhibition of rat intestinal alpha-glucosidase at 0.02 mM using pNPG as substrate preincubated for 3 mins followed by substrate addition and measured after 30 mins relative to control
[10] = molecular target: T2, Pancreatic alpha-amylase; experiment: Inhibition of porcine pancreatic alpha-amylase at 10 ug/ml using potato starch as substrate preincubated for 5 mins followed by substrate addition and measured after 3 mins by DNS method relative to control; conditions: pig, 0.05 h
[11] = molecular target: T1, Pancreatic triacylglycerol lipase; experiment: Inhibition of porcine pancreatic lipase at 5 ug/ml using 4-MU oleate as substrate incubated for 30 min by fluorescence method relative to control; conditions: pig, 0.5 h

Chain of Beta-glucuronidase (P05804 whole entry): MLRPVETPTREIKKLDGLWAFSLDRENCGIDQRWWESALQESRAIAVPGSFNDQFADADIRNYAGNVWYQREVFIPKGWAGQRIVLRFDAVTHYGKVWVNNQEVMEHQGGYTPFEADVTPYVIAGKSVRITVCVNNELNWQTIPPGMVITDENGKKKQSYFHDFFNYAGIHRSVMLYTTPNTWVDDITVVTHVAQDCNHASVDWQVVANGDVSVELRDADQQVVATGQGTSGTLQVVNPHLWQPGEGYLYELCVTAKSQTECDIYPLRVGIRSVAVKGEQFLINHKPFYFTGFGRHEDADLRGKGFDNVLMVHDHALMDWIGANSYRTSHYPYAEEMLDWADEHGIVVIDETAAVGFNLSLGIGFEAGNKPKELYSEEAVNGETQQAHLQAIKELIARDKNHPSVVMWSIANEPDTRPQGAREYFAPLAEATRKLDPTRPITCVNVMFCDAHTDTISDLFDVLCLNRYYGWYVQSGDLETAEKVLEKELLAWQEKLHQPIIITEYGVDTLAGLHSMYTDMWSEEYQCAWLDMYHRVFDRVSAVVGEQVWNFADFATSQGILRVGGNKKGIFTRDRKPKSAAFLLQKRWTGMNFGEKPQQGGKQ
Chain of Beta-glucuronidase (Escherichia coli (strain K12)) (P05804 whole entry, looked up): as the sequence (P05804 whole entry) above

Row | SMILES | pIC50 [1] | inhibition (INH) [2] [%] | inhibition [3] | inhibition (INH) [4] [%] | inhibition (INH) [5] | inhibition [6] | Ratio IC50 [7] | inhibition (INH) [8] [%] | inhibition [9] [%] | inhibition (INH) [10] [%] | inhibition (INH) [11] [%]
1 | O=C(O)[C@@H](O)[C@H]1OC(=O)[C@H](O)[C@H]1O | 4.61 |  |  |  |  |  |  |  |  |  | 
2 | OC/C=C/c1ccc2c(c1)O[C@@H](CO)[C@H](c1ccc3c(c1)O[C@H](CO)[C@@H](c1ccc(O)c(O)c1)O3)O2 | 5.40 | 85 to 93 | inactive | < 56 | Not Active | inactive | 3.5 to 39.5 | 21 |  |  | 
3 | OC/C=C/c1ccc2c(c1)O[C@H](c1ccc3c(c1)O[C@@H](c1ccc(O)c(O)c1)[C@H](CO)O3)[C@@H](CO)O2 | 5.16 | 85 to 93 | 12% | < 56 | Not Active | inactive | 3.5 to 39.5 |  |  |  | 
4 | C[C@H]1O[C@H](O[C@H]2[C@H](O)[C@@H](O)[C@@H](O[C@H]3[C@H](O)[C@@H](O)C(O)O[C@@H]3CO)O[C@@H]2CO)[C@H](O)[C@@H](O)[C@@H]1N[C@H]1C=C(CO)[C@@H](O)[C@H](O)[C@H]1O (stereo not given in full) [ACARBOSE] |  |  |  |  |  |  |  |  | 80 | 94 | 
5 | OC[C@@H]1Oc2cc([C@@H]3OC[C@@H]4[C@H]3CO[C@H]4c3ccc4c(c3)O[C@@H](CO)[C@H](c3ccc(O)c(O)c3)O4)ccc2O[C@H]1c1ccc(O)c(O)c1 | 6.02 | 85 to 93 | inactive | < 56 | Not Active | inactive | 3.5 to 39.5 | 21 |  |  | 
6 | OC[C@H]1Oc2ccc([C@@H]3OC[C@@H]4[C@H]3CO[C@H]4c3ccc4c(c3)O[C@H](c3ccc(O)c(O)c3)[C@@H](CO)O4)cc2O[C@@H]1c1ccc(O)c(O)c1 | 6.21 | 85 to 93 | inactive | < 56 | Not Active | inactive | 3.5 to 39.5 | 21 |  |  | 
7 | CCCCCCCCCCC[C@@H](C[C@@H]1OC(=O)[C@H]1CCCCCC)OC(=O)[C@H](CC(C)C)NC=O [ORLISTAT] |  |  |  |  |  |  |  |  |  |  | 96
